Measurements from patent US20210045385A1, “PYRIDAZINONE-SUBSTITUTED KETOXIMES AS HERBICIDES” (FMC Corporation, priority 2018, published 2021).

Legend:
Assay type in all cases: in vivo
kochia (Kochia scoparia) [1] = test: Test A postemergence, visual plant response rating; conditions: for Kochia plant response rating (0 to 100 scale): 500 g ai/ha, postemergence, 0 is no effect, 100 is complete control; for Kochia plant response rating: Postemergence, 125 g ai/ha, 0 to 100 scale (0 no effect, 100 complete control)
How it was run: (§1)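 Compared with untreated controls, treated plants received a visual injury score on a 0–100 scale around 10 days after application. The compound, in a non-phytotoxic solvent with surfactant, was given as a preemergence soil spray or postemergence at the one- to two-leaf stage.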

[2] = test system: blackgrass (Alopecurus myosuroides); test: Test A postemergence, visual plant response rating; conditions: for Blackgrass plant response rating (0 to 100 scale): 500 g ai/ha, postemergence, 0 is no effect, 100 is complete control; for Blackgrass plant response rating: Postemergence, 125 g ai/ha, 0 to 100 scale (0 no effect, 100 complete control)
How it was run: as §1

[3] = test system: galium (catchweed bedstraw, Galium aparine); test: Test A postemergence, visual plant response rating; conditions: for Galium plant response rating (0 to 100 scale): 500 g ai/ha, postemergence, 0 is no effect, 100 is complete control; for Galium plant response rating: Postemergence, 125 g ai/ha, 0 to 100 scale (0 no effect, 100 complete control)
How it was run: as §1

[4] = test system: pigweed (Amaranthus retroflexus); test: Test A postemergence, visual plant response rating; conditions: for Pigweed plant response rating (0 to 100 scale): 500 g ai/ha, postemergence, 0 is no effect, 100 is complete control; for Pigweed plant response rating: Postemergence, 125 g ai/ha, 0 to 100 scale (0 no effect, 100 complete control)
How it was run: as §1

[5] = test system: foxtail, giant (giant foxtail, Setaria faberii); test: Test A postemergence, visual plant response rating; conditions: for Foxtail, Giant plant response rating (0 to 100 scale): 500 g ai/ha, postemergence, 0 is no effect, 100 is complete control; for Foxtail, Giant plant response rating: Postemergence, 125 g ai/ha, 0 to 100 scale (0 no effect, 100 complete control)
How it was run: as §1

[6] = test system: wheat (Triticum aestivum); test: Test A postemergence, visual plant response rating; conditions: for Wheat plant response rating (0 to 100 scale): 500 g ai/ha, postemergence, 0 is no effect, 100 is complete control; for Wheat plant response rating: Postemergence, 125 g ai/ha, 0 to 100 scale (0 no effect, 100 complete control)
How it was run: as §1

[7] = test system: barnyardgrass (Echinochloa crus-galli); test: Test A postemergence, visual plant response rating; conditions: for Barnyardgrass plant response rating (0 to 100 scale): 500 g ai/ha, postemergence, 0 is no effect, 100 is complete control; for Barnyardgrass plant response rating: Postemergence, 125 g ai/ha, 0 to 100 scale (0 no effect, 100 complete control)
How it was run: as §1

[8] = test system: ragweed (common ragweed, Ambrosia elatior); test: Test A postemergence, visual plant response rating; conditions: for Ragweed plant response rating (0 to 100 scale): 500 g ai/ha, postemergence, 0 is no effect, 100 is complete control; for Ragweed plant response rating: Postemergence, 125 g ai/ha, 0 to 100 scale (0 no effect, 100 complete control)
How it was run: as §1

[9] = test system: Italian ryegrass (Lolium multiflorum); test: Test A postemergence, visual plant response rating; conditions: for Ryegrass, Italian plant response rating (0 to 100 scale): 500 g ai/ha, postemergence, 0 is no effect, 100 is complete control; for Ryegrass, Italian plant response rating: Postemergence, 125 g ai/ha, 0 to 100 scale (0 no effect, 100 complete control)
How it was run: as §1

corn (Zea mays) = test: Test A postemergence, visual plant response rating; conditions: for Corn plant response rating (0 to 100 scale): 500 g ai/ha, postemergence, 0 is no effect, 100 is complete control; for Corn plant response rating: Postemergence, 125 g ai/ha, 0 to 100 scale (0 no effect, 100 complete control)
How it was run: as §1

[10] = test system: sedge, umbrella (small-flower umbrella sedge, Cyperus difformis); test: Test B flooded paddy test, visual plant response rating; conditions: 250 g ai/ha, Flood, applied to paddy water, 2-leaf stage, evaluated after 13 to 15 days
How it was run: (§2)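 2-leaf plants; pots flooded 3 cm over soil surface; compound dosed straight into the floodwater; depth kept constant; greenhouse 13–15 d; visual rating vs. untreated controls.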

rice (Oryza sativa) = test: as above; conditions: 250 g ai/ha, Flood, applied to paddy water, 2-leaf stage, evaluated after 13 to 15 days
How it was run: as §2

[11] = test system: ducksalad (Heteranhera limosa); test: as above; conditions: 250 g ai/ha, Flood, applied to paddy water, 2-leaf stage, evaluated after 13 to 15 days
How it was run: as §2

[12] = test system: barnyardgrass (Echinochloa crus-galli); test: as above; conditions: 250 g ai/ha, Flood, applied to paddy water, 2-leaf stage, evaluated after 13 to 15 days
How it was run: as §2

kochia (Kochia scoparia) [13] = test: Test A preemergence, visual plant response rating; conditions: for Kochia plant response rating: 125 g ai/ha, preemergence, 0 to 100 scale, 0 no effect, 100 complete control; for Kochia plant response rating (0 to 100 scale): 500 g ai/ha Preemergence, approx. 10 days
How it was run: as §1

[14] = test system: pigweed (Amaranthus retroflexus); test: Test A preemergence, visual plant response rating; conditions: for Pigweed plant response rating: 125 g ai/ha, preemergence, 0 to 100 scale, 0 no effect, 100 complete control; for Pigweed plant response rating (0 to 100 scale): 500 g ai/ha Preemergence, approx. 10 days
How it was run: as §1

[15] = test system: foxtail, giant (giant foxtail, Setaria faberii); test: Test A preemergence, visual plant response rating; conditions: for Foxtail, Giant plant response rating: 125 g ai/ha, preemergence, 0 to 100 scale, 0 no effect, 100 complete control; for Foxtail, Giant plant response rating (0 to 100 scale): 500 g ai/ha Preemergence, approx. 10 days
How it was run: as §1

[16] = test system: barnyardgrass (Echinochloa crus-galli); test: Test A preemergence, visual plant response rating; conditions: for Barnyardgrass plant response rating: 125 g ai/ha, preemergence, 0 to 100 scale, 0 no effect, 100 complete control; for Barnyardgrass plant response rating (0 to 100 scale): 500 g ai/ha Preemergence, approx. 10 days
How it was run: as §1

[17] = test system: ragweed (common ragweed, Ambrosia elatior); test: Test A preemergence, visual plant response rating; conditions: for Ragweed plant response rating: 125 g ai/ha, preemergence, 0 to 100 scale, 0 no effect, 100 complete control; for Ragweed plant response rating (0 to 100 scale): 500 g ai/ha Preemergence, approx. 10 days
How it was run: as §1

[18] = test system: Italian ryegrass (Lolium multiflorum); test: Test A preemergence, visual plant response rating; conditions: for Ryegrass, Italian plant response rating: 125 g ai/ha, preemergence, 0 to 100 scale, 0 no effect, 100 complete control; for Ryegrass, Italian plant response rating (0 to 100 scale): 500 g ai/ha Preemergence, approx. 10 days
How it was run: as §1

Row | SMILES | Kochia plant response rating (0 to 100 scale) (kochia (Kochia scoparia) [1]) | Kochia plant response rating (kochia (Kochia scoparia) [1]) | Blackgrass plant response rating (0 to 100 scale) [2] | Blackgrass plant response rating [2] | Galium plant response rating (0 to 100 scale) [3] | Galium plant response rating [3] | Pigweed plant response rating (0 to 100 scale) [4] | Pigweed plant response rating [4] | Foxtail, Giant plant response rating (0 to 100 scale) [5] | Foxtail, Giant plant response rating [5] | Wheat plant response rating (0 to 100 scale) [6] | Wheat plant response rating [6] | Barnyardgrass plant response rating (0 to 100 scale) [7] | Barnyardgrass plant response rating [7] | Ragweed plant response rating (0 to 100 scale) [8] | Ragweed plant response rating [8] | Ryegrass, Italian plant response rating (0 to 100 scale) [9] | Ryegrass, Italian plant response rating [9] | Corn plant response rating (0 to 100 scale) (corn (Zea mays)) | Corn plant response rating (corn (Zea mays)) | also measured
1 | CON=C(c1c(O)c(C)nn(C)c1=O)c1cccc2ccsc12 (single isomer, unassigned) [Compound 47] | 30 | 10 | 30 | 20 | 100 | 70 | 90 | 60 | 70 | 30 | 0 | 0 | 20 | 30 | 90 | 80 | 70 | 0 | 20 | 0 | Plant response rating, Sedge, Umbrella (0 to 100 scale, 0 is no effect, 100 is complete control) [10]: 0; Plant response rating, Rice (0 to 100 scale, 0 is no effect, 100 is complete control) (rice (Oryza sativa)): 0; Plant response rating, Ducksalad (0 to 100 scale, 0 is no effect, 100 is complete control) [11]: 0; Plant response rating, Barnyardgrass (0 to 100 scale, 0 is no effect, 100 is complete control) [12]: 0; Kochia plant response rating (kochia (Kochia scoparia) [13]): 0; Kochia plant response rating (0 to 100 scale) (kochia (Kochia scoparia) [13]): 90; Pigweed plant response rating [14]: 20; Pigweed plant response rating (0 to 100 scale) [14]: 80; Foxtail, Giant plant response rating [15]: 20; Foxtail, Giant plant response rating (0 to 100 scale) [15]: 90; Barnyardgrass plant response rating [16]: 0; Barnyardgrass plant response rating (0 to 100 scale) [16]: 50; Ragweed plant response rating [17]: 100; Ragweed plant response rating (0 to 100 scale) [17]: 100; Ryegrass, Italian plant response rating [18]: 10; Ryegrass, Italian plant response rating (0 to 100 scale) [18]: 70
2 | CCc1cccc(C(=NOC)c2c(O)c(C)nn(C)c2=O)c1 [Compound 36] | 70 | 60 | 20 | 10 | 70 | 50 | 70 | 20 | 10 | 0 | 0 | 0 | 0 | 0 | 80 | 70 | 50 | 30 | 0 | 20 | Plant response rating, Sedge, Umbrella (0 to 100 scale, 0 is no effect, 100 is complete control) [10]: 0; Plant response rating, Rice (0 to 100 scale, 0 is no effect, 100 is complete control) (rice (Oryza sativa)): 0; Plant response rating, Ducksalad (0 to 100 scale, 0 is no effect, 100 is complete control) [11]: 0; Plant response rating, Barnyardgrass (0 to 100 scale, 0 is no effect, 100 is complete control) [12]: 0; Kochia plant response rating (kochia (Kochia scoparia) [13]): 10; Kochia plant response rating (0 to 100 scale) (kochia (Kochia scoparia) [13]): 50; Pigweed plant response rating [14]: 10; Pigweed plant response rating (0 to 100 scale) [14]: 30; Foxtail, Giant plant response rating [15]: 0; Foxtail, Giant plant response rating (0 to 100 scale) [15]: 50; Barnyardgrass plant response rating [16]: 10; Barnyardgrass plant response rating (0 to 100 scale) [16]: 20; Ragweed plant response rating [17]: 10; Ragweed plant response rating (0 to 100 scale) [17]: 70; Ryegrass, Italian plant response rating [18]: 30; Ryegrass, Italian plant response rating (0 to 100 scale) [18]: 50
3 | CCO/N=C(\c1c(O)c(C)nn(C)c1=O)c1ccc(F)c2ccccc12 [Compound 85] | 90 | 70 | 100 | 90 | 90 | 80 | 90 | 80 | 80 | 70 | 50 | 40 | 80 | 50 | 100 | 90 | 100 | 90 | 30 | 10 | Plant response rating, Sedge, Umbrella (0 to 100 scale, 0 is no effect, 100 is complete control) [10]: 0; Plant response rating, Rice (0 to 100 scale, 0 is no effect, 100 is complete control) (rice (Oryza sativa)): 0; Plant response rating, Ducksalad (0 to 100 scale, 0 is no effect, 100 is complete control) [11]: 0; Plant response rating, Barnyardgrass (0 to 100 scale, 0 is no effect, 100 is complete control) [12]: 0; Kochia plant response rating (kochia (Kochia scoparia) [13]): 10; Kochia plant response rating (0 to 100 scale) (kochia (Kochia scoparia) [13]): 50; Pigweed plant response rating [14]: 100; Pigweed plant response rating (0 to 100 scale) [14]: 100; Foxtail, Giant plant response rating [15]: 80; Foxtail, Giant plant response rating (0 to 100 scale) [15]: 100; Barnyardgrass plant response rating [16]: 70; Barnyardgrass plant response rating (0 to 100 scale) [16]: 90; Ragweed plant response rating [17]: 90; Ragweed plant response rating (0 to 100 scale) [17]: 100; Ryegrass, Italian plant response rating [18]: 100; Ryegrass, Italian plant response rating (0 to 100 scale) [18]: 100
4 | CON=C(c1cccc(C)c1F)c1c(O)c(C)nn(C)c1=O [Compound 70] | 80 | 70 | 30 | 0 | 80 | 70 | 90 | 80 | 40 | 0 | 0 | 0 | 30 | 0 | 80 | 80 | 70 | 0 | 0 | 0 | Plant response rating, Sedge, Umbrella (0 to 100 scale, 0 is no effect, 100 is complete control) [10]: 0; Plant response rating, Rice (0 to 100 scale, 0 is no effect, 100 is complete control) (rice (Oryza sativa)): 0; Plant response rating, Ducksalad (0 to 100 scale, 0 is no effect, 100 is complete control) [11]: 0; Plant response rating, Barnyardgrass (0 to 100 scale, 0 is no effect, 100 is complete control) [12]: 0; Kochia plant response rating (kochia (Kochia scoparia) [13]): 0; Kochia plant response rating (0 to 100 scale) (kochia (Kochia scoparia) [13]): 50; Pigweed plant response rating [14]: 0; Pigweed plant response rating (0 to 100 scale) [14]: 40; Foxtail, Giant plant response rating [15]: 0; Foxtail, Giant plant response rating (0 to 100 scale) [15]: 10; Barnyardgrass plant response rating [16]: 0; Barnyardgrass plant response rating (0 to 100 scale) [16]: 10; Ragweed plant response rating [17]: 70; Ragweed plant response rating (0 to 100 scale) [17]: 80; Ryegrass, Italian plant response rating [18]: 0; Ryegrass, Italian plant response rating (0 to 100 scale) [18]: 10
